# Laboratory results: patent US20250340537A1, “PHARMACEUTICALLY ACTIVE COMPOUNDS, COMPOSITIONS, AND METHODS FOR MODULATING PENDRIN” (ARBORMED Co., Ltd., priority 2022, published 2025)
# Target: T1, H723R-pendrin (Homo sapiens, UniProt O43511, H723R)
# T1 construct: expressed in transfected cells; host or cells: PANC-1
# T1 sequence (O43511 1-780 H723R): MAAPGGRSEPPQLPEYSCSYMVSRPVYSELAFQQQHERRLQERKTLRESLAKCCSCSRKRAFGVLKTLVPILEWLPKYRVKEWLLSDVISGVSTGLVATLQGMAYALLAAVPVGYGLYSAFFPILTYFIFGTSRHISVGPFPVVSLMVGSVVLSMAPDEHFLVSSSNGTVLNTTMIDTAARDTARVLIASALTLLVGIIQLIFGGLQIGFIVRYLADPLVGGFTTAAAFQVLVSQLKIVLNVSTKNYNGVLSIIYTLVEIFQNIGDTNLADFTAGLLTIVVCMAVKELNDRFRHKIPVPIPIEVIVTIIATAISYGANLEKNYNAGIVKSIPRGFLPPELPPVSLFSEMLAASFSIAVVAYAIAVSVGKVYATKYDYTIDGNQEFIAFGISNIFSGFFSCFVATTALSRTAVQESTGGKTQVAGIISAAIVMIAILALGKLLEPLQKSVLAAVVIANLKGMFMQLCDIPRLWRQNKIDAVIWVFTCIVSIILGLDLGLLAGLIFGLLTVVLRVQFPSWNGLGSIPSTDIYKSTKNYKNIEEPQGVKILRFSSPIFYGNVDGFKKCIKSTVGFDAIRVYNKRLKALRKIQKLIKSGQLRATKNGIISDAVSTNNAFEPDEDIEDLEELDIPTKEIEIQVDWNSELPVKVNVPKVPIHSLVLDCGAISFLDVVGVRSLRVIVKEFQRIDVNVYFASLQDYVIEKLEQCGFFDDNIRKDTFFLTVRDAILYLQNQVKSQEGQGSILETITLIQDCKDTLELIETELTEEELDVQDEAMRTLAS
# Test: YFP fluorescence quenching assay (Cl−/I− exchange activity of pendrin)
# Assay type: cell-based
# Settings: PANC-1 cells stably expressing human H723R-pendrin and YFP-F46L/H148Q/I152L; compound incubation 20-24 hours; iodide influx
# Excerpt: Halide sensor YFP F46L/H148Q/I152L is quenched by halide ion like Iodide. When such YFP is expressed in a cell, it expresses in the cytoplasm.
# To measure H723R-PDS activity, PANC-1 cells were stably transfected with halide sensors YFP-F46L/H148Q/I152L and H723R-PDS which has problems with membrane trafficking due to misfolding.
# If the cell-treated drug is a corrector for H723R-PDS, H723R-PDS will translocate normally to the plasma membrane.
# At this time, when treated with a high-concentration iodide solution outside the cell, iodide enters the cell due to the Cl−/I− exchange activity of pendrin, and the fluorescence of the halide sensor YFP decreases.
# PANC-1 cells were cultured in Dulbecco's Modified Eagle's Medium with 10% fetal bovine serum, 2 mM glutamine, 100 units/ml penicillin and 100 µg/ml streptomycin. For high-throughput screening, PANC-1 cells were stably transfected with human H723R-pendrin and halide sensor YFP-F46L/H148Q/I152L.
# PANC-1 cells expressing human H723R-pendrin and YFP-F46L/H148Q/I152L were plated in 96-well microplates at a density of 2×10^4 cells per well and grown for 20-24 hours at 37° C. (90% humidity 5% CO2). Then these cells were treated with 50 μl growth medium containing test compounds and incubated for 20-24 hours. For YFP quenching assay, each well of the 96-well plate was washed 2 times with 200 μl of PBS, and it was filled with 50 μl of HEPES-buffered solution (140 mM NaCl, 5 mM KCl, 1 mM MgCl2, 1 mM CaCl2, 10 mM D-glucose, 10 mM HEPES; pH 7.4 with NaOH). After 10 minutes of incubation at 37° C., the 96-well plate was moved on the FLUOstar Omega Microplate Reader (BMG Labtech, Ortenberg, Germany) for a fluorescence assay. Each well was assayed individually for H723R-pendrin mediated I^− influx by recording fluorescence (495±15 nm excitation, 520±20 nm emission) every 400 ms for 1 second (baseline). Then, 50 μL of NaI-substituted HEPES-buffered solution (NaI replacing NaCl) was added using a liquid injector at 1 second and YFP fluorescence was recorded every 400 ms for 10 seconds. The initial iodide influx rate was determined from the initial slope of fluorescence by nonlinear regression, after the infusion of iodide.
# It is indicated as EC50 with the following key: A=EC50 less than 5 uM; B=EC50 greater than 5 uM, but less than 10 uM; C=EC50 greater than 10 uM.
row,EC50,Compound
1,> 10 µM,NC1=C(c2cncc(-c3ccc(O)c(O)c3)n2)C(=O)CN1c1ncncc1Cl [Compound 120]
2,> 10 µM,NC1=C(c2cccc(-c3ccc(O)c(O)c3)n2)C(=O)CN1CC1CCNC1 (stereo not drawn) [Compound 86]
3,> 10 µM,CNc1ccc(-c2cncc(C3=C(N)N(c4ccccc4Cl)CC3=O)n2)cc1NC [Compound 23]
4,> 10 µM,COc1ccc(-c2cccc(C3=C(N)N(CC4CCNC4)CC3=O)n2)cc1OC (stereo not drawn) [Compound 85]
5,5 to 10 µM,NC1=C(c2cncc(-c3ccc(O)c(OC(F)(F)F)c3)n2)C(=O)CN1c1ccccc1Cl [Compound 32]
6,> 10 µM,COc1ccc(-c2cncc(C3=C(N)N(CCC(F)(F)F)CC3=O)n2)cc1OC [Compound 17]
7,> 10 µM,NC1=C(c2cncc(-c3ccc4ocnc4c3)n2)C(=O)CN1c1ccccc1Cl [Compound 11]
8,> 10 µM,NC1=C(c2cncc(-c3ccc(O)c(O)c3)c2)C(=O)CN1CCC(F)(F)F [Compound 95]
9,> 10 µM,NC1=C(c2cnc(-c3ccc(O)c(O)c3)cn2)C(=O)CN1c1ccccc1Cl [Compound 35]
10,> 10 µM,NC1=C(c2cncc(-c3ccc(O)c(OC4CCC4)c3)n2)C(=O)CN1CC1CCCC1 [Compound 67]
11,< 5 µM,COc1cc(-c2ccnc(C3=C(N)N(CC4CCCC4)CC3=O)n2)ccc1O [Compound 110]
12,> 10 µM,COc1ccc(-c2ccnc(C3=C(N)N(CCC(F)(F)F)CC3=O)n2)cc1OC [Compound 96]
13,5 to 10 µM,COc1ccc(-c2cncc(C3=C(N)N(c4ccccc4F)CC3=O)n2)cc1OC [Compound 4]
14,5 to 10 µM,NC1=C(c2cncc(-c3ccc(O)c(OC4COC4)c3)n2)C(=O)CN1CC1CCC1 [Compound 112]
15,> 10 µM,COc1ccc(-c2cncc(C3=C(N)N(C4CCC(F)(F)C4)CC3=O)n2)cc1OC (stereo not drawn) [Compound 61]
16,< 5 µM,COCOc1ccc(-c2cncc(C3=C(N)N(CC4CCCC4)CC3=O)n2)cc1OC [Compound 116]
17,> 10 µM,NC1=C(c2cccc(-c3ccc(O)c(O)c3)n2)C(=O)CN1CCC(F)(F)F [Compound 94]
18,> 10 µM,NC1=C(c2cncc(-c3ccc4nc[nH]c4c3)n2)C(=O)CN1c1ccccc1Cl [Compound 34]
19,> 10 µM,COc1ccc(-c2cncc(C3=C(N)N(CC4CCOC4)CC3=O)n2)cc1OC (stereo not drawn) [Compound 36]
20,> 10 µM,NC1=C(c2nccc(-c3ccc(O)c(O)c3)n2)C(=O)CN1CCC(F)(F)F [Compound 97]

row,EC50,Compound
1,> 10 µM,CNc1ccc(-c2cncc(C3=C(N)N(CC(C)C)CC3=O)n2)cc1NC [Compound 26]
2,< 5 µM,NC1=C(c2ccnc(-c3ccc(O)c(O)c3)n2)C(=O)CN1c1ccccc1F [Compound 57]
3,> 10 µM,COc1ccc(-c2cc(C3=C(N)N(CC4CCCC4)CC3=O)ccn2)cc1OC [Compound 108]
4,> 10 µM,NC1=C(c2cncc(-c3ccc(O)c(OC4CC(N)C4)c3)n2)C(=O)CN1CC1CCCC1 (stereo not drawn) [Compound 113]
5,5 to 10 µM,NC1=C(c2nccc(-c3ccc(O)c(O)c3)n2)C(=O)CN1CC1CCCC1 [Compound 65]
6,5 to 10 µM,COc1ccc(-c2cncc(C3=C(N)N(CC4CCCC4)CC3=O)n2)cc1OC [Compound 15]
7,> 10 µM,NC1=C(c2cncc(-c3ccc(O)c(O)c3)n2)C(=O)CN1c1ccccc1O [Compound 43]
8,< 5 µM,NC1=C(c2ccnc(-c3ccc(O)c(O)c3)n2)C(=O)CN1c1ccccc1Cl [Compound 114]
9,> 10 µM,NC1=C(c2ccnc(-c3ccc(O)c(O)c3)c2)C(=O)CN1c1ccccc1Cl [Compound 102]
10,5 to 10 µM,NC1=C(c2cncc(-c3ccc(O)c(OC4COC4)c3)n2)C(=O)CN1C1CCCC1 [Compound 117]
11,> 10 µM,COC(CN1CCN(c2cncc(C3=C(N)N(c4ccccc4Cl)CC3=O)n2)CC1)OC [Compound 25]
12,> 10 µM,NC1=C(c2cncc(-c3ccc(O)c(O)c3)c2)C(=O)CN1CC1CCNC1 (stereo not drawn) [Compound 60]
13,> 10 µM,NC1=C(c2cncc(-c3ccc(O)c(O)c3)n2)C(=O)CN1c1cccnc1Cl [Compound 119]
14,> 10 µM,COCOc1ccc(-c2cncc(C3=C(N)N(C4CCCC4)CC3=O)n2)cc1OC1COC1 [Compound 115]
15,> 10 µM,COc1ccc(-c2ccnc(C3=C(N)N(CC4CCNC4)CC3=O)n2)cc1OC (stereo not drawn) [Compound 82]
16,5 to 10 µM,COc1ccc(-c2cncc(C3=C(N)N(c4ccccc4Cl)CC3=O)n2)cc1OC [Compound 6]
17,> 10 µM,CN1CCC(CN2CC(=O)C(c3cncc(-c4ccc(O)c(O)c4)n3)=C2N)C1 (stereo not drawn) [Compound 53]
18,> 10 µM,NC1=C(c2nccc(-c3ccc(O)c(O)c3)n2)C(=O)CN1c1ccccc1F [Compound 74]
19,< 5 µM,NC1=C(c2cncc(-c3ccc(O)c(O)c3)n2)C(=O)CN1c1ccccc1F [Compound 78]
20,> 10 µM,COc1ccc(-c2cncc(C3=C(N)N(c4ccccc4Cl)CC3=O)n2)cc1O [Compound 29]

row,EC50,Compound
1,> 10 µM,NC1=C(c2cncc(-c3cc(O)cc(O)c3)n2)C(=O)CN1c1ccccc1Cl [Compound 24]
2,> 10 µM,NC1=C(c2ccnc(-c3ccc(O)c(O)c3)c2)C(=O)CN1CC1CCCC1 [Compound 109]
3,> 10 µM,NC1=C(c2cncc(-c3ccc(O)c(OCCO)c3)n2)C(=O)CN1CC1CCCC1 [Compound 103]
4,< 5 µM,NC1=C(c2ccnc(-c3ccc(O)c(O)c3)n2)C(=O)CN1CC1CCCC1 [Compound 79]
5,> 10 µM,COc1cc(-c2cncc(C3=C(N)N(CC4CCNC4)CC3=O)c2)ccc1O (stereo not drawn) [Compound 90]
6,< 5 µM,COCCOc1cc(-c2cncc(C3=C(N)N(CC4CCCC4)CC3=O)n2)ccc1O [Compound 99]
7,> 10 µM,NC1=C(c2cncc(-c3ccc(O)c(OC4CNC4)c3)n2)C(=O)CN1CC1CCCC1 [Compound 89]
8,> 10 µM,COc1ccc(-c2cccc(C3=C(N)N(CC4CCCC4)CC3=O)n2)cc1OC [Compound 80]
9,5 to 10 µM,COc1ccc(-c2cncc(C3=C(N)N(CC4CCC4)CC3=O)n2)cc1OC [Compound 66]
10,> 10 µM,NC1=C(c2cncc(-c3ccc(O)c(O)c3)c2)C(=O)CN1CC1CCOC1 (stereo not drawn) [Compound 51]
11,< 5 µM,CNCCOc1cc(-c2cncc(C3=C(N)N(CC4CCCC4)CC3=O)n2)ccc1O [Compound 107]
12,> 10 µM,NC1=C(c2cncc(-c3ccc(O)c(O)c3)c2)C(=O)CN1CC1CCCC1 [Compound 54]
13,< 5 µM,NC1=C(c2cncc(-c3ccc(O)c(OC4CC(O)C4)c3)n2)C(=O)CN1CC1CCCC1 (stereo not drawn) [Compound 111]
14,> 10 µM,NC1=C(c2cncc(-c3ccc(O)c(O)c3)n2)C(=O)CN1CC1CCNC1 (stereo not drawn) [Compound 40]
15,> 10 µM,CC(C)CN1CC(=O)C(c2cncc(-c3ccc4c(c3)n(C)c(=O)n4C)n2)=C1N [Compound 27]
16,> 10 µM,COc1ccc(-c2cccc(C3=C(N)N(c4ccccc4Cl)CC3=O)n2)cc1OC [Compound 75]
17,> 10 µM,COc1ccc(-c2cc(C3=C(N)N(c4ccccc4Cl)CC3=O)ccn2)cc1OC [Compound 106]
18,5 to 10 µM,NC1=C(c2cncc(-c3ccc(O)c(O)c3)n2)C(=O)CN1c1cccc(Cl)c1Cl [Compound 64]
19,> 10 µM,COc1ccc(-c2cc(C3=C(N)N(c4ccccc4Cl)CC3=O)ncn2)cc1OC [Compound 68]
20,> 10 µM,COc1ccc(-c2cc(C3=C(N)N(c4ccccc4F)CC3=O)ccn2)cc1OC [Compound 100]
